Test results from patent US7910729B2, “Azulenyl nitrone spin trapping agents, methods of making and using same” (The Florida International University Board of Trustees, priority 2004, dated 2011).
Values belong to the compound of their own block, whether it stands above or below them.

Tests used:
[1] = system: lipopolysaccharide (LPS) administered to rats; settings: cited from earlier work
aged animal model = settings: daily intraperitoneal injection, male and female populations; cited from earlier work
[2] = system: human diploid fibroblast cells; settings: cited from earlier work
aged rats = settings: chronic treatment; cited from earlier work
[3] = Antioxidant assay: AIBN-initiated oxidation of cumene to cumene hydroperoxide, followed by 1H NMR; type: physicochemical; settings: atmospheric oxygen, 37° C., FIG. 1
Procedure: In the following example, comparative testing of the antioxidant activity of azulenyl nitrone compounds of the invention against a control, was performed. The assay was based on the well-established oxidation of cumene to cumene hydroperoxide by atmospheric oxygen at 37° C. in the presence of the free radical initiator AIBN (Blanchard, H. S. J. Am. Chem. Soc. (1959) 81:4548; Characterization of products formed during the autoxidation of beta carotene. Handelman, G. J., van Kujik, F. J. G. M., Chatterjee, A., Krinsky, N. I. Free Rad. Biol. Med. (1991) 10: 427-37). The progress of the peroxidation reaction is conveniently followed and quantified by 1H NMR spectroscopy by monitoring the appearance and increasing integration of the singlet arising from the methyl groups of cumene hydroperoxide. The use of a long, low power, selective pulse (Shaped radiofrequency pulses in high resolution NMR. Freeman, R. J. Prog. Nuc. Mag. Spec. (1998) 32:59) allowed the growth of the cumene hydroperoxide methyl group singlet to be accurately measured in the presence of a huge excess of cumene. This was shown by using known concentrations of commercially available cumene hydroperoxide to calibrate the peak areas.

[4] = aqueous solution at pH 7 and 20° C.; cited from earlier work

melting point: 235 °C (dec.)
SMILES: COC=Cc1cc(/C=C/c2cc(/C=[N+](\[O-])C(C)(C)C)c3cc(C(C)C)ccc(C)c2-3)c2c(C)ccc(C(C)C)cc1-2 [I]

SMILES: CC1(C)Cc2ccccc2C=[N+]1[O-] [MDL 101,002]
LPS-induced leukopenia [1]: failed to prevent leukopenia | LPS-induced pulmonary edema [1]: prevented pulmonary edema | LPS-induced thrombocytopenia [1]: partially reduced thrombocytopenia | organ dysfunction and cytokine secretion induced by LPS [1]: reduces

SMILES: CC(C)(C)[N+]([O-])=Cc1ccccc1 [PBN, alpha-phenyl N-tert-butylnitrone]
lifespan (aged animal model): remarkable extension of the lifespan | onset of senescence [2]: effectively delayed the onset of senescence | age-related changes in cognitive performance (aged rats): benefit (i.e., improve)

SMILES: Cc1ccc(C(C)C)cc2c(/C=[N+](\[O-])C(C)(C)C)cc(/C=C/c3cc(/C=[N+](\[O-])C(C)(C)C)c4cc(C(C)C)ccc(C)c3-4)c1-2 [STAZN, Stilbazulenyl Nitrone]
potency as nitrone-based chain breaking antioxidants / free-radical scavenging/antioxidant activity [3]: remarkable potency

SMILES: Cc1ccc(C(C)C)cc2c(C=C3SCCCS3)cc(/C=C/c3cc(/C=[N+](\[O-])C(C)(C)C)c4cc(C(C)C)ccc(C)c3-4)c1-2 [STNXY]
potency as nitrone-based chain breaking antioxidants / free-radical scavenging/antioxidant activity [3]: remarkable potency

SMILES: Cc1c(C)c2c(c(C)c1O)CC[C@@](C)(CCC[C@H](C)CCC[C@H](C)CCCC(C)C)O2 [vitamin E, alpha-tocopherol]
one-electron oxidative potential (vs. NHE) [4]: 0.48 V | age-related changes in cognitive performance (aged rats): benefit (i.e., improve)
